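A five-concentration, 48-hour dose response in 96-well plates underlies each endpoint, interpolated linearly between surrounding concentrations. GI50: concentration for 50% inhibition of growth.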 Calls of active or inactive are those of the source. Cut-off read from the data, not from the text of the source: active = GI50 up to about 1.1 µM and inactive = higher.
What was measured:
Test in all cases: growth of human tumour cells (NCI), 48 h
[1] = tested on: SR
[2] = tested on: HOP-62
[3] = tested on: HT-29
[4] = tested on: KM12
[5] = tested on: A498
[6] = tested on: LXFL 529
[7] = tested on: RPMI-8226
[8] = tested on: M14
[9] = tested on: SF-268
[10] = tested on: SF-295
[11] = tested on: HCT-116
[12] = tested on: HCT-15
[13] = tested on: KM-20L2
[14] = tested on: 786-0
[15] = tested on: NCI-H460
[16] = tested on: DMS-114
[17] = tested on: SNB-78
[18] = tested on: UACC-257
[19] = tested on: RXF 631
[20] = tested on: M19-MEL
[21] = tested on: U-251
[22] = tested on: SW-620
[23] = tested on: OVCAR-4
[24] = tested on: TK-10
[25] = tested on: MOLT-4
[26] = tested on: OVCAR-3
[27] = tested on: K562
[28] = tested on: SK-OV-3
[29] = tested on: SF-539
[30] = tested on: NCI-H226
[31] = tested on: HOP-92
[32] = tested on: HL-60
[33] = tested on: Malme-3M
[34] = tested on: XF498
[35] = tested on: UO-31
[36] = tested on: SNB-75
[37] = tested on: DLD-1
[38] = tested on: HCC 2998
[39] = tested on: SN12C
[40] = tested on: SK-MEL-5
[41] = tested on: LOX IMVI
[42] = tested on: CAKI-1
[43] = tested on: A549
[44] = tested on: UACC-62
[45] = tested on: NCI-H522
[46] = tested on: COLO 205
[47] = tested on: OVCAR-8
[48] = tested on: SNB-19
[49] = tested on: NCI-H23
[50] = tested on: IGROV-1
[51] = tested on: EKVX
[52] = tested on: RXF 393
[53] = tested on: DMS-273
[54] = tested on: OVCAR-5
[55] = tested on: CCRF-CEM

Measured: GI50

O=Cc1cc2sc(C=O)cc2s1
> 100 µM: [12]
inactive: [1] > 100 µM | [2] > 100 µM | [3] > 100 µM | [4] > 100 µM | [5] 17.7 µM | [6] > 100 µM | [7] > 100 µM | [8] > 100 µM | [9] > 100 µM | [10] > 100 µM | [11] > 100 µM | [13] > 100 µM | [14] > 100 µM | [15] > 100 µM | [16] > 100 µM | [17] > 100 µM | [18] > 100 µM | [19] > 100 µM | [20] > 100 µM | [21] > 100 µM | [22] > 100 µM | [23] > 100 µM | [24] > 100 µM | [25] > 100 µM | [26] > 100 µM | [27] > 100 µM | [28] > 100 µM | [29] > 100 µM | [30] 26.1 µM | [31] > 100 µM | [32] > 100 µM | [33] > 100 µM | [34] > 100 µM | [35] > 100 µM | [36] > 100 µM | [37] > 100 µM | [38] > 100 µM | [39] > 100 µM | [40] > 100 µM | [41] > 100 µM | [42] 45.3 µM | [43] > 100 µM | [44] 40.6 µM | [45] 93.3 µM | [46] > 100 µM | [47] > 100 µM | [48] > 100 µM | [49] > 100 µM | [50] > 100 µM | [51] > 100 µM | [52] > 100 µM | [53] > 100 µM | [54] > 100 µM | [55] > 100 µM
